In PubChem BioAssay (NCI) one finds TGI and GI50 data, which are given here for 13 molecules.

Test systems include A549 NSCLC; COLO 205 colon; HT29 colon; KM12 colon; NCI-H226 lung; NCI-H460 lung; OVCAR-3 ovarian; SF-268 CNS; U251 CNS; SK-OV-3 ovarian.
Holding throughout (experiment): NCI tumour cell line growth inhibition, 48 h

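Protocol summary: plate cells (96-well), add compound at 5 concentrations, incubate 48 h, interpolate endpoints linearly. GI50 = concentration required for 50% inhibition of growth. Definition used: TGI = concentration required for complete inhibition of growth.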

Regarding `CC1=C(C(=O)NCc2ccccc2)C(c2ccc([N+](=O)[O-])cc2)C(C(=O)NCc2ccccc2)=C(C)N1`, the TGI with A549 NSCLC is more than 100 µM; in the experiment on COLO 205 colon it was 83.5 µM; in the experiment with HT29 colon, 33.9 µM; in the experiment on KM12 colon it was more than 100 µM; with NCI-H226 lung, more than 100 µM; in the experiment on NCI-H460 lung it was more than 100 µM. Besides, the TGI in the experiment on OVCAR-3 ovarian, in the experiment with SF-268 CNS and in the experiment with U251 CNS was more than 100 µM each time.
Regarding `O=C(/C=C/C=C/c1c(C2CC2)nc2ccccc2c1-c1ccc(F)cc1)c1cccs1`, the GI50 in the experiment on A549 NSCLC is 3.72 µM; in the experiment on HT29 colon, 1.49 µM; in the experiment with KM12 colon, 1.79 µM; with NCI-H226 lung, 1.5 µM; in the experiment on NCI-H460 lung, 1.14 µM; in the experiment on OVCAR-3 ovarian, 1.5 µM. Further, the GI50 in the experiment on SF-268 CNS was 3.35 µM; with SK-OV-3 ovarian, 9.44 µM; with U251 CNS, 1.9 µM. For the same molecule, the TGI is more than 100 µM with A549 NSCLC; 5.47 µM in the experiment with HT29 colon; 8.05 µM in the experiment on KM12 colon; 3.49 µM in the experiment with NCI-H226 lung; 3.31 µM with NCI-H460 lung; 4.99 µM in the experiment on OVCAR-3 ovarian. For the same molecule, the TGI with SF-268 CNS is more than 100 µM; in the experiment on SK-OV-3 ovarian, more than 100 µM; with U251 CNS it was 5.4 µM.
On to `O=C1c2ccccc2NC1(c1ccccc1)c1c(-c2ccccc2)[nH]c2ccccc12` (configuration not stated), for which the TGI is more than 100 µM in the experiment on A549 NSCLC; 35.3 µM in the experiment with COLO 205 colon; more than 100 µM in the experiment on HT29 colon; more than 100 µM with KM12 colon; more than 100 µM in the experiment with NCI-H460 lung; more than 100 µM in the experiment on OVCAR-3 ovarian. The TGI with SK-OV-3 ovarian and in the experiment on U251 CNS was more than 100 µM in each case.
As to `CN(CCc1ccccn1)c1nc(=[N+](C)C)ss1`, the TGI in the experiment on A549 NSCLC, with COLO 205 colon, with HT29 colon, in the experiment with KM12 colon, in the experiment on NCI-H460 lung and with OVCAR-3 ovarian was more than 100 µM each time. In addition, the TGI in the experiment with SF-268 CNS, with SK-OV-3 ovarian and in the experiment with U251 CNS was more than 100 µM in each case.
`O=C(O)/C(Cl)=C(\Cl)C(=O)NC1C2CC3CC(C2)CC1C3` (configuration not stated): the TGI is more than 100 µM with A549 NSCLC; more than 100 µM in the experiment with COLO 205 colon; more than 100 µM in the experiment on HT29 colon; 96.2 µM in the experiment with KM12 colon; more than 100 µM in the experiment with NCI-H226 lung; more than 100 µM with OVCAR-3 ovarian. Besides, the TGI with SF-268 CNS, with SK-OV-3 ovarian and in the experiment on U251 CNS was more than 100 µM in each case.
Take `COc1ccc(C[C@@H]2NC[C@@H](O)[C@@H]2OC(C)=O)cc1`: the GI50 is 5.54 µM in the experiment with A549 NSCLC; 2.04 µM with COLO 205 colon; 3.53 µM with KM12 colon; 5.27 µM in the experiment with NCI-H226 lung; 3.43 µM in the experiment on NCI-H460 lung; 5.34 µM with OVCAR-3 ovarian. The GI50 with SF-268 CNS is 4.37 µM. Besides, the TGI in the experiment with U251 CNS turned out to be 0.453 µM.
Regarding `Cc1cc2cn3c4ccc(O)cc4[nH]c(=O)c3c2cc1C`, the GI50 was 0.0308 µM in the experiment on A549 NSCLC; 0.174 µM in the experiment with COLO 205 colon; 0.0374 µM with KM12 colon; 0.0399 µM in the experiment with NCI-H226 lung; 0.0125 µM with OVCAR-3 ovarian; 0.0293 µM with SK-OV-3 ovarian. Further, the GI50 in the experiment on U251 CNS is 0.026 µM. Further, the TGI turned out to be 1.04 µM in the experiment with A549 NSCLC; 0.927 µM in the experiment with COLO 205 colon; 0.553 µM in the experiment on KM12 colon; 0.859 µM in the experiment on NCI-H226 lung; 0.0399 µM in the experiment with OVCAR-3 ovarian; 0.298 µM in the experiment on SK-OV-3 ovarian. In the experiment with U251 CNS, this molecule registered a TGI of 1.07 µM.
For the molecule `CN(C)CCNC(=O)c1cccc2c(Nc3ccc(S(N)(=O)=O)cc3)c3ccccc3nc12`, the TGI in the experiment on A549 NSCLC turned out to be 7.29 µM; in the experiment on COLO 205 colon, 1.75 µM; with HT29 colon it was 8.35 µM; in the experiment on NCI-H226 lung, 3.05 µM; in the experiment with NCI-H460 lung, 1.96 µM; with OVCAR-3 ovarian, 5.85 µM. The TGI in the experiment with SF-268 CNS came to 7.49 µM; in the experiment with SK-OV-3 ovarian it was 3.59 µM; in the experiment with U251 CNS, 4.69 µM.
`COC1=CC23CCCN2CCc2cc4c(cc2C3C1O)OCO4` (configuration not stated): the TGI is more than 100 µM in the experiment with A549 NSCLC; 64.2 µM in the experiment with COLO 205 colon; more than 100 µM in the experiment on HT29 colon; more than 100 µM in the experiment on KM12 colon; more than 100 µM in the experiment with NCI-H226 lung; more than 100 µM in the experiment on NCI-H460 lung. In addition, the TGI in the experiment on SF-268 CNS, in the experiment on SK-OV-3 ovarian and with U251 CNS was more than 100 µM in each case.
Consider `CCCCCCCCCCCCCCCC[N+](C)(CCO)Cc1cnc[nH]1` (configuration not stated), for which the GI50 was 1.49 µM in the experiment with A549 NSCLC; 0.382 µM in the experiment with HT29 colon; 1.51 µM in the experiment on NCI-H226 lung; 0.995 µM in the experiment with OVCAR-3 ovarian; 1.5 µM in the experiment on SK-OV-3 ovarian. Further, the TGI in the experiment with A549 NSCLC stood at 5.57 µM; in the experiment with HT29 colon, 12.3 µM; with NCI-H226 lung, 7.72 µM; in the experiment on OVCAR-3 ovarian, 3.31 µM; in the experiment with SK-OV-3 ovarian it was 5.22 µM.
In the case of `CN1C(c2ccccc2)CS(=O)(=O)CS1(=O)=O` (configuration not stated), the TGI in the experiment with A549 NSCLC is more than 100 µM; in the experiment on COLO 205 colon, more than 100 µM; with HT29 colon it was more than 100 µM; in the experiment with KM12 colon, more than 100 µM; in the experiment with NCI-H460 lung, more than 100 µM; in the experiment on OVCAR-3 ovarian, 88.7 µM. In addition, the TGI in the experiment on SF-268 CNS, with SK-OV-3 ovarian and in the experiment with U251 CNS was more than 100 µM in each case.
Consider `Cc1ccc(C2NC(=O)c3ccccc3N2)s1` (configuration not stated), for which the TGI is more than 100 µM with A549 NSCLC; more than 100 µM in the experiment with KM12 colon; 58.4 µM in the experiment with NCI-H460 lung; 50.2 µM in the experiment with OVCAR-3 ovarian; more than 100 µM in the experiment on SF-268 CNS; 91.6 µM in the experiment with SK-OV-3 ovarian. Besides, the TGI in the experiment on U251 CNS was more than 100 µM.
For `O=C(CC1(O)C(=O)Nc2ccccc21)c1ccco1` (configuration not stated), the TGI with A549 NSCLC, in the experiment on COLO 205 colon, with HT29 colon, in the experiment with NCI-H226 lung, with NCI-H460 lung and in the experiment with OVCAR-3 ovarian was more than 100 µM in each case. Further, the TGI in the experiment on SF-268 CNS and with SK-OV-3 ovarian was more than 100 µM in each case.
